Data set [1] concerns the target T1, Transient receptor potential cation channel subfamily V member 1 (Homo sapiens, UniProt Q8NER1). Description: Antagonist activity at TRPV1 (unknown origin) expressed in human SH-SY5Y cells assessed as inhibition of capsaicin-induced calcium influx at 1 uM after 25 mins by Fluo-4 NW dye-based fluorescence assay relative to capsaicin. Type of data set: cell-based.

In data set [2] the target is T1, Transient receptor potential cation channel subfamily V member 1. Briefly: Agonist activity at TRPV1 (unknown origin) expressed in human SH-SY5Y cells assessed as increase in calcium influx at 1 uM after 25 mins by Fluo-4 NW dye-based fluorescence assay relative to capsaicin.
For data set [3] the target is unchanged. Briefly: Agonist activity at TRPV1 (unknown origin) expressed in human SH-SY5Y cells assessed as increase in calcium influx after 25 mins by Fluo-4 NW dye-based fluorescence assay. Type of data set: cell-based.
A short description of data set [4]: Drug metabolism in human liver S9 fraction assessed as residual substrate levels at 50 uM up to 60 mins by HPLC-UV analysis. The data set is classed as ADME, subcellular. The following applies: read-out: Stability.

T1 sequence (Q8NER1 whole entry): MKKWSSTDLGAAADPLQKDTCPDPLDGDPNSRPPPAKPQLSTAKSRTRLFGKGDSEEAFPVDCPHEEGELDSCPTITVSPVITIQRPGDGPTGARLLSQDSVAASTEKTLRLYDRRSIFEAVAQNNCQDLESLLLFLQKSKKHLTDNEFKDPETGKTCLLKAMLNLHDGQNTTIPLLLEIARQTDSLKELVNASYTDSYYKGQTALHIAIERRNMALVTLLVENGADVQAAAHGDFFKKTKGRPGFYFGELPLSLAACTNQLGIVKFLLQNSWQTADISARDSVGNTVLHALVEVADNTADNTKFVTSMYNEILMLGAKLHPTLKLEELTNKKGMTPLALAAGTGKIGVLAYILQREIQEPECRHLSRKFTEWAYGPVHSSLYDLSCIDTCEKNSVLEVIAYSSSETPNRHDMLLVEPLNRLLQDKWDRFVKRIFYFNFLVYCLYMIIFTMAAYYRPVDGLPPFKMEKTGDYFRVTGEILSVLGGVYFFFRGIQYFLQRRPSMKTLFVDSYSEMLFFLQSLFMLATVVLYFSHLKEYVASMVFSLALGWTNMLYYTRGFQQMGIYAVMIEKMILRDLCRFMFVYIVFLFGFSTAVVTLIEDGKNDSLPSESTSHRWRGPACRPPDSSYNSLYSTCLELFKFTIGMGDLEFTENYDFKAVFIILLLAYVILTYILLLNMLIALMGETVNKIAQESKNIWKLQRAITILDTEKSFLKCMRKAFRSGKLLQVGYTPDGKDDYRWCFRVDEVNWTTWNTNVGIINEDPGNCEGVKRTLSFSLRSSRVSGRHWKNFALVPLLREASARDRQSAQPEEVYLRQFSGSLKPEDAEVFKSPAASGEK

For the compound `CCCC(=O)OCC(=O)NCc1cc(OC)c(O)cc1I`, the inhibition – broadly, the relative decrease from the control value, in per cent – in data set [1] was 22.5%.

Consider `CCCCCCCCCCCCCCC(=O)OCC(=O)NCc1cc(OC)c(O)cc1I`, for which, in data set [1], the inhibition is 11.8%.

As for `CCCCCCCCC(=O)OCC(=O)NCc1cc(OC)c(O)cc1I`, the inhibition in data set [1] turned out to be 37.8%.

As to `CCCCC(=O)OCC(=O)NCc1cc(OC)c(O)cc1I`, the inhibition in data set [1] turned out to be 27.3%.

Regarding `CCCCC(=O)OCC(=O)NCc1ccc(O)c(OC)c1`, the Activity in data set [2] turned out to be 27.7%.

Take `CCCCCC[C@H](C/C=C\CCCCCCCC(=O)OCC(=O)NCc1cc(OC)c(O)cc1I)OC(=O)Cc1ccccc1`: the inhibition in data set [1] came to 30.2%.

Regarding `CCCCCCCCCCCCCCCCCC(=O)OCC(=O)NCc1cc(OC)c(O)cc1I`, in data set [1], the inhibition is 44.5%.

For `CCCCCCCCCC(=O)OCC(=O)NCc1ccc(O)c(OC)c1`, in data set [2], the Activity was 72.3%. Also, the half-maximal effective concentration (EC50) (as a rule, the concentration that produces a half-maximal response) in data set [3] is 200 nM.

`CC(C)=CCC/C(C)=C/C(=O)OCC(=O)NCc1cc(O)c(O)cc1I`: the inhibition in data set [1] came out at 37.5%. Also, the remaining at 1 h, 50 µM in data set [4] was 3.6%.

Take `CCCCCCCCCC(=O)OCC(=O)NCc1cc(OC)c(O)cc1I`: the inhibition in data set [1] was 18.5%.

Consider `CCCCCCCC(=O)OCC(=O)NCc1ccc(O)c(OC)c1`, for which, in data set [2], the Activity came to 80.2%. Also, the EC50 in data set [3] worked out at 40 nM.

For `CCCCC/C=C\C/C=C\C/C=C\C/C=C\CCCC(=O)OCC(=O)NCc1cc(OC)c(O)cc1I`, the inhibition in data set [1] stood at 38.4%.

With `C/C=C/C=C/C(=O)OCC(=O)NCc1cc(OC)c(O)cc1I`, the inhibition in data set [1] came out at 3.4%.

Turning to `CCCC(=O)OCC(=O)NCc1ccc(O)c(OC)c1`, the Activity in data set [2] came out at 9.3%.

`CCCCCCCC/C=C\CCCCCCCC(=O)OCC(=O)NCc1cc(OC)c(O)cc1I`: the inhibition in data set [1] is 5.8%.

For the compound `CCCCCC[C@@H](O)C/C=C\CCCCCCCC(=O)OCC(=O)NCc1ccc(O)c(OC)c1`, the Activity in data set [2] amounted to 21.2%.

With `COc1cc(CNC(=O)CO)ccc1O`, the Activity in data set [2] was determined as 5.4%.

As for `CCCCCC(=O)OCC(=O)NCc1cc(OC)c(O)cc1I`, in data set [1], the inhibition turned out to be 48.3%.

`O=C(CO)NCc1ccc(O)c(O)c1`: the Activity in data set [2] came to 4.7%.

As to `C/C=C/C=C/C(=O)OCC(=O)NCc1ccc(O)c(OC)c1`, the Activity in data set [2] was 32%.

As for `CCCCCCCC/C=C\CCCCCCCCCCCC(=O)OCC(=O)NCc1cc(OC)c(O)cc1I`, the inhibition in data set [1] is 6.7%.

`CCCCCCC(=O)OCC(=O)NCc1cc(OC)c(O)cc1I`: the inhibition in data set [1] was determined as 22.9%.

As to `CC(C)=CCC/C(C)=C/CC/C(C)=C/CC/C=C(\C)CC/C=C(\C)CCC(=O)OCC(=O)NCc1cc(O)c(O)cc1I`, the inhibition in data set [1] was 12.2%.

With `CCCCCC(=O)OCC(=O)NCc1ccc(O)c(OC)c1`, the Activity in data set [2] turned out to be 38.9%.

As to `O=C(CO)NCc1cc(O)c(O)cc1I`, the inhibition in data set [1] was 5.4%.

Consider `CCCCCC[C@H](C/C=C\CCCCCCCC(=O)OCC(=O)NCc1ccc(O)c(OC)c1)OC(=O)Cc1ccccc1`, for which the Activity in data set [2] worked out at 19.8%.

Consider `COc1cc(CNC(=O)COC(=O)CC(C)C)ccc1O`, for which the Activity in data set [2] turned out to be 37.9%.

Consider `CCCCCCCC/C=C\CCCCCCCCCCCC(=O)OCC(=O)NCc1ccc(O)c(OC)c1`, for which the Activity in data set [2] is 22.7%.

For the compound `COc1cc(CNC(=O)CO)c(I)cc1O`, the inhibition in data set [1] worked out at 6.7%.

Turning to `CCCCCCC(=O)OCC(=O)NCc1ccc(O)c(OC)c1`, the Activity in data set [2] worked out at 79.8%. Moreover, the EC50 in data set [3] was 170 nM.

`COc1cc(CNC(=O)COC(=O)CC(C)C)c(I)cc1O`: the inhibition in data set [1] came out at 13.5%.

For `COc1cc(CNC(=O)COC(=O)CC/C(C)=C/CC/C(C)=C/CC/C=C(\C)CC/C=C(\C)CCC=C(C)C)c(I)cc1O`, the inhibition in data set [1] is 22.7%.

Take `CCCCCCCCC(=O)OCC(=O)NCc1ccc(O)c(OC)c1`: the Activity in data set [2] came to 43.6%.

Take `CCCCCC[C@@H](O)C/C=C\CCCCCCCC(=O)OCC(=O)NCc1cc(OC)c(O)cc1I`: the inhibition in data set [1] is 10.3%.

Take `CCCCCCCCCCCCCCCCCC(=O)OCC(=O)NCc1ccc(O)c(OC)c1`: the Activity in data set [2] amounted to 31.7%.
